Blank lines part the entries; values can stand above or below the molecule they belong to. Active and inactive are the calls of the source. The rule behind the calls is not given here.
Key:
Homo sapiens [1] = species on record: Homo sapiens; assay: Selectivity ratio of IC50 for human recombinant PDE11 to IC50 for human platelet PDE5
Plasma [2] = assay: Plasma protein binding in human; type: ADME, cell-free
Plasma [3] = assay: Fraction unbound in human plasma; type: ADME, cell-free
[4] = Fraction unbound in rat plasma; type: ADME, cell-free
[5] = Metabolic stability in human microsomes assessed as compound remaining after 30 mins; type: ADME, Microsome; settings: read-out: Stability
[6] = Clearance in Sprague-Dawley rat at 1 mg/kg, iv; type: ADME, organism-based; parameters: dose 1 mg/kg, route intravenous; settings: in vivo
Homo sapiens [7] = species on record: Homo sapiens; assay: Selectivity ratio of IC50 for human retina PDE6 to IC50 for human platelet PDE5
[8] = Metabolic stability in rat microsomes assessed as compound remaining after 30 mins; type: ADME, Microsome; settings: read-out: Stability
[9] = Plasma protein binding in rat; type: ADME, cell-free; settings: read-out: PPB (converted)
[10] = Aqueous solubility at pH 7.4; type: physicochemical
[11] = molecular target: cGMP-specific 3',5'-cyclic phosphodiesterase (Homo sapiens, UniProt O76074); assay: Inhibition of human platelet PDE5 assessed as reduction in conversion of [3H]cGMP to [3H]GMP after 2 hr by scintillation proximity assay
[12] = molecular target: Voltage-gated inwardly rectifying potassium channel KCNH2 (Homo sapiens, UniProt Q12809); assay: Inhibition of human ERG by patch-clamp method
Chain of Voltage-gated inwardly rectifying potassium channel KCNH2 (Q12809 whole entry): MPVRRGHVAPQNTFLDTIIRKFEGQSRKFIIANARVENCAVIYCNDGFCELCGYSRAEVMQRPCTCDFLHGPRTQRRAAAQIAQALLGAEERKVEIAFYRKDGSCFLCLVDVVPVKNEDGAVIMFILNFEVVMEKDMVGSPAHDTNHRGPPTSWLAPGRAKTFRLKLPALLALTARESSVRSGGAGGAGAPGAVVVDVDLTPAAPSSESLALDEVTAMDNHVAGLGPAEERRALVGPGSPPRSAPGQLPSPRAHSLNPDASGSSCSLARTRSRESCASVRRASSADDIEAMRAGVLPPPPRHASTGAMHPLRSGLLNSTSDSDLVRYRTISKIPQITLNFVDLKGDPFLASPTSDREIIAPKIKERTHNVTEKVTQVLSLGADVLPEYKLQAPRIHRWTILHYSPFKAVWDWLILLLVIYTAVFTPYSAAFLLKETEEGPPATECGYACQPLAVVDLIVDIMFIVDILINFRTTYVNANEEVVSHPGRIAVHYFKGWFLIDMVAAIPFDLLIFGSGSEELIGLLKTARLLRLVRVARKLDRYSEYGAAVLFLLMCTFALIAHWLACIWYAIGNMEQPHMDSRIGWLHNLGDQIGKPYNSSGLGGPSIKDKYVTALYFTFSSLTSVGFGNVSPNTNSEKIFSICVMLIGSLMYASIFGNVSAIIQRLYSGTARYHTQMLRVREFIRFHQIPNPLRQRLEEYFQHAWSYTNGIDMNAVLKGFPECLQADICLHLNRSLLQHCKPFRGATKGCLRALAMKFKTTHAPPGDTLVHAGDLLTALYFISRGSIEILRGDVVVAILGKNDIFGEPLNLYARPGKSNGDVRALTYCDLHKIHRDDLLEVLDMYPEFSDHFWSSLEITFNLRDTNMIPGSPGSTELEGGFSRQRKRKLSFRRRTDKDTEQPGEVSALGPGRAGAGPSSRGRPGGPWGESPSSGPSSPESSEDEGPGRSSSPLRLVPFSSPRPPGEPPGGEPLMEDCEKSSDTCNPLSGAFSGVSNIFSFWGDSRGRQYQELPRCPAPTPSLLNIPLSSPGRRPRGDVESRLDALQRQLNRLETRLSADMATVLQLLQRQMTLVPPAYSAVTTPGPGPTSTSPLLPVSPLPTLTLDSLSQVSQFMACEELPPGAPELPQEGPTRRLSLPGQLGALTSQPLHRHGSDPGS

Homo sapiens [13] = species on record: Homo sapiens; assay: Fraction unbound in human plasma
Homo sapiens [14] = species on record: Homo sapiens; assay: Plasma protein binding in human; settings: read-out: PPB (converted)
[15] = molecular target: Dual specificity calcium/calmodulin-dependent 3',5'-cyclic nucleotide phosphodiesterase 1C (Homo sapiens, UniProt Q14123); assay: Inhibition of PDE1C
Chain of Dual specificity calcium/calmodulin-dependent 3',5'-cyclic nucleotide phosphodiesterase 1C (Q14123 whole entry): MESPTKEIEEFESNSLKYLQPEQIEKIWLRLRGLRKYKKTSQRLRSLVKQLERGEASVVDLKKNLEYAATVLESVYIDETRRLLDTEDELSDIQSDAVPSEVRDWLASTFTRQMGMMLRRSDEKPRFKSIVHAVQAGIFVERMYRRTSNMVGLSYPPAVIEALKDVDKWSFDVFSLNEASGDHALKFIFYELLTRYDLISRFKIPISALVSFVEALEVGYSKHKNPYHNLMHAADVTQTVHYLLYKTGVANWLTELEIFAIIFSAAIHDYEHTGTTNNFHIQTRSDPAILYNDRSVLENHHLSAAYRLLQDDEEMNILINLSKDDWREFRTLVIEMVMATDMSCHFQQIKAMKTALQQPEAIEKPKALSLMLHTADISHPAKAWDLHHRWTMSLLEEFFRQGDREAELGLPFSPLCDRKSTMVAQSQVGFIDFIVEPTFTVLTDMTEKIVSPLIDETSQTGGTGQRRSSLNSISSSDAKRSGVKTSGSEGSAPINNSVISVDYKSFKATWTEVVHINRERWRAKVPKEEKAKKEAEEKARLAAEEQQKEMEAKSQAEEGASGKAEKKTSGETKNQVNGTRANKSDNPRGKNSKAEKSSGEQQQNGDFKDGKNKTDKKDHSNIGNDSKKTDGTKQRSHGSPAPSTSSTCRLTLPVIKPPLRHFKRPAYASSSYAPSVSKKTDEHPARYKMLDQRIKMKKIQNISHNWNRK

[16] = molecular target: 3',5'-cyclic-AMP phosphodiesterase 4D (Homo sapiens, UniProt Q08499); assay: Inhibition of PDE4D
[17] = molecular target: 3',5'-cyclic-AMP phosphodiesterase 4A (Homo sapiens, UniProt P27815); assay: Inhibition of PDE4A
[18] = molecular target: 3',5'-cyclic-AMP phosphodiesterase 4B (Homo sapiens, UniProt Q07343); assay: Inhibition of PDE4B
Chain of 3',5'-cyclic-AMP phosphodiesterase 4B (Q07343 whole entry, the tested form may be a part): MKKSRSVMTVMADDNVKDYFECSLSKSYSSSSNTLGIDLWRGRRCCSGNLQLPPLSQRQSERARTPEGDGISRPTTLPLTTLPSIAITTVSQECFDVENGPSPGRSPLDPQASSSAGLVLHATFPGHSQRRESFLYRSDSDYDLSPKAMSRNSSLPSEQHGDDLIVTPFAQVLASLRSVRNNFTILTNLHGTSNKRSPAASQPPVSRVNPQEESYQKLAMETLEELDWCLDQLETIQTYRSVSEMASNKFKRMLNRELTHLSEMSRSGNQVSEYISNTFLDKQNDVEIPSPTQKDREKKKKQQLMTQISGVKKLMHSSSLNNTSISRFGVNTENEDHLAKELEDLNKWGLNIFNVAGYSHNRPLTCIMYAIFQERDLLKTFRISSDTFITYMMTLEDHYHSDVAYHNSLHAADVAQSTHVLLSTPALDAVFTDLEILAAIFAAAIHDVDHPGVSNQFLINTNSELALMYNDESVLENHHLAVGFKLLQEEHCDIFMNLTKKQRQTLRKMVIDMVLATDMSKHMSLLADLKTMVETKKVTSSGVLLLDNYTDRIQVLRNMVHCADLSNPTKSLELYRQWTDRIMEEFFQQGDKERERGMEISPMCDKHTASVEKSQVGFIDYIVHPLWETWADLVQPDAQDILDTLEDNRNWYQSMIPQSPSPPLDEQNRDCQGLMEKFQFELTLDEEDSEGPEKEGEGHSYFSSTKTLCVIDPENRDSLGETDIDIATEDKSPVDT

Rattus norvegicus [19] = assay: Antihypertensive activity in iv dosed anesthetized SHR rat assessed as reduction of systemic arterial blood pressure administered as three successive escalating doses measured during 30 to 50 mins portion of each 1 hr steady state infusion; type: functional, organism-based; settings: Artery
[20] = Ratio of free drug level in iv dosed SHR rat plasma administered as three successive escalating doses to IC50 for human platelet PDE5; type: ADME, organism-based; settings: in vivo
[21] = molecular target: 3',5'-cyclic-AMP phosphodiesterase 4C (Homo sapiens, UniProt Q08493); assay: Inhibition of PDE4C
Chain of 3',5'-cyclic-AMP phosphodiesterase 4C (Q08493 whole entry): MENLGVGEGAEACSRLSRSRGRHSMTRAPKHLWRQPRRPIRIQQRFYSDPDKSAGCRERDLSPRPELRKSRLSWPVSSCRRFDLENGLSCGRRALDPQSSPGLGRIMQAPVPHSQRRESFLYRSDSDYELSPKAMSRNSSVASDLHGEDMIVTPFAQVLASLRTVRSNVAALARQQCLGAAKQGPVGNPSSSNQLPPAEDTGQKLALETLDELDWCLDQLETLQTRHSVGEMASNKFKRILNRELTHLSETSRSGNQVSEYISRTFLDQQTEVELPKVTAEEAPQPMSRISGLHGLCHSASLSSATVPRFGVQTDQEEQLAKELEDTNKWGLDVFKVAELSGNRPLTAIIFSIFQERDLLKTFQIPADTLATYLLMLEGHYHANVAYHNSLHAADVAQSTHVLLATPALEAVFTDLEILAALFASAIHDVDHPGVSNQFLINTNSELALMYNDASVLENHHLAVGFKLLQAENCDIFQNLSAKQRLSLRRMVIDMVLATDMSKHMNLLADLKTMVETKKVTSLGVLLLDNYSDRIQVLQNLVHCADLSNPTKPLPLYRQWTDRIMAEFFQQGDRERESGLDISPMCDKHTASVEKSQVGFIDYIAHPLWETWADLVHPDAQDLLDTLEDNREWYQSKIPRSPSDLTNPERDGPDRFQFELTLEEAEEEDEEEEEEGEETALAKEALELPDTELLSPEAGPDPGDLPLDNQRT

[22] = Elimination half life in healthy human; type: ADME, organism-based; settings: in vivo, read-out: beta t1/2 (converted)
[23] = molecular target: 3',5'-cyclic-AMP phosphodiesterase 7B (Homo sapiens, UniProt Q9NP56); assay: Inhibition of PDE7B
[24] = Tmax in healthy human; type: ADME, organism-based; settings: in vivo
[25] = Inhibition of PDE9
[26] = Clearance in dog; type: ADME, organism-based, Canis lupus familiaris; settings: in vivo
Rattus norvegicus [27] = assay: Free plasma concentration in iv dosed anesthetized SHR rat administered as three successive escalating doses; type: ADME, organism-based; settings: in vivo
[28] = Inhibition of PDE7
[29] = Ratio of drug level in brain to blood in Sprague-Dawley rat at 10 mg/kg, sc administered as single dose measured after 2 hrs; type: ADME, organism-based; parameters: dose 10 mg/kg, route subcutaneous; settings: read-out: BBR
[30] = molecular target: cGMP-inhibited 3',5'-cyclic phosphodiesterase 3B (Homo sapiens, UniProt Q13370); assay: Inhibition of PDE3B
[31] = molecular target: High affinity cAMP-specific and IBMX-insensitive 3',5'-cyclic phosphodiesterase 8A (Homo sapiens, UniProt O60658); assay: Inhibition of PDE8A
Rattus norvegicus [32] = assay: Toxicity in iv dosed SHR rat administered as three successive escalating doses; type: organism-based; settings: in vivo
Rattus norvegicus [33] = assay: Antihypertensive activity in anesthetized SHR rat assessed as reduction of systolic blood pressure at 2 mg/kg, po after 24 hrs relative to control; type: functional, Artery
[34] = Oral bioavailability in Sprague-Dawley rat at 1 mg/kg; type: ADME, organism-based; settings: in vivo
[35] = molecular target: High affinity cAMP-specific and IBMX-insensitive 3',5'-cyclic phosphodiesterase 8B (Homo sapiens, UniProt O95263); assay: Inhibition of PDE8B
[36] = Metabolic stability in cannulated Sprague-Dawley rat bile duct assessed as compound remaining after 6 hrs; type: ADME; settings: read-out: Stability
[37] = molecular target: Dual specificity calcium/calmodulin-dependent 3',5'-cyclic nucleotide phosphodiesterase 1B (Homo sapiens, UniProt Q01064); assay: Inhibition of PDE1B
[38] = Renal clearance in Sprague-Dawley rat as % compound recovered; type: ADME, organism-based, Kidney; settings: urine, read-out: Recovered in urine
[39] = molecular target: Dual specificity calcium/calmodulin-dependent 3',5'-cyclic nucleotide phosphodiesterase 1A (Homo sapiens, UniProt P54750); assay: Inhibition of PDE1A
Chain of Dual specificity calcium/calmodulin-dependent 3',5'-cyclic nucleotide phosphodiesterase 1A (P54750 whole entry): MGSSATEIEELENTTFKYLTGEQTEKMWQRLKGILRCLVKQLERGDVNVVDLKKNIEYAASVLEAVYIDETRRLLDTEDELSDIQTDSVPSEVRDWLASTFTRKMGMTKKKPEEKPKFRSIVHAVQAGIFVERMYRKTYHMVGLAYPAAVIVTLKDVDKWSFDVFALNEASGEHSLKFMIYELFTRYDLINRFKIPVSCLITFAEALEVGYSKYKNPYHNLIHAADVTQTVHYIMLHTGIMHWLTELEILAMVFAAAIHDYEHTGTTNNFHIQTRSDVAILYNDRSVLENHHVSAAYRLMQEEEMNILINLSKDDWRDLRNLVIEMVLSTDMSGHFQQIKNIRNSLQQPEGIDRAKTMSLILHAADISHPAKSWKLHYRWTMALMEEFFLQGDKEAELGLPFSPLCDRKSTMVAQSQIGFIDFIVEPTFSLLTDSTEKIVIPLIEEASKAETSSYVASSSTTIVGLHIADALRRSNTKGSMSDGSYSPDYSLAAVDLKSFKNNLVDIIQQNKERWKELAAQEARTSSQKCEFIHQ

[40] = Bioavailability in dog; type: ADME, organism-based, Canis lupus familiaris; settings: in vivo
[41] = Inhibition of PDE2
[42] = Renal clearance in dog as % compound recovered; type: ADME, organism-based, Canis lupus familiaris, Kidney; settings: urine, read-out: Recovered in urine
Rattus norvegicus [43] = assay: Antihypertensive activity in iv dosed anesthetized SHR rat assessed as reduction of systemic arterial blood pressure at free plasma concentration of 2.3 nM; type: functional, organism-based; settings: Artery
[44] = molecular target: cGMP-inhibited 3',5'-cyclic phosphodiesterase 3A (Homo sapiens, UniProt Q14432); assay: Inhibition of PDE3A
Chain of cGMP-inhibited 3',5'-cyclic phosphodiesterase 3A (Q14432 whole entry): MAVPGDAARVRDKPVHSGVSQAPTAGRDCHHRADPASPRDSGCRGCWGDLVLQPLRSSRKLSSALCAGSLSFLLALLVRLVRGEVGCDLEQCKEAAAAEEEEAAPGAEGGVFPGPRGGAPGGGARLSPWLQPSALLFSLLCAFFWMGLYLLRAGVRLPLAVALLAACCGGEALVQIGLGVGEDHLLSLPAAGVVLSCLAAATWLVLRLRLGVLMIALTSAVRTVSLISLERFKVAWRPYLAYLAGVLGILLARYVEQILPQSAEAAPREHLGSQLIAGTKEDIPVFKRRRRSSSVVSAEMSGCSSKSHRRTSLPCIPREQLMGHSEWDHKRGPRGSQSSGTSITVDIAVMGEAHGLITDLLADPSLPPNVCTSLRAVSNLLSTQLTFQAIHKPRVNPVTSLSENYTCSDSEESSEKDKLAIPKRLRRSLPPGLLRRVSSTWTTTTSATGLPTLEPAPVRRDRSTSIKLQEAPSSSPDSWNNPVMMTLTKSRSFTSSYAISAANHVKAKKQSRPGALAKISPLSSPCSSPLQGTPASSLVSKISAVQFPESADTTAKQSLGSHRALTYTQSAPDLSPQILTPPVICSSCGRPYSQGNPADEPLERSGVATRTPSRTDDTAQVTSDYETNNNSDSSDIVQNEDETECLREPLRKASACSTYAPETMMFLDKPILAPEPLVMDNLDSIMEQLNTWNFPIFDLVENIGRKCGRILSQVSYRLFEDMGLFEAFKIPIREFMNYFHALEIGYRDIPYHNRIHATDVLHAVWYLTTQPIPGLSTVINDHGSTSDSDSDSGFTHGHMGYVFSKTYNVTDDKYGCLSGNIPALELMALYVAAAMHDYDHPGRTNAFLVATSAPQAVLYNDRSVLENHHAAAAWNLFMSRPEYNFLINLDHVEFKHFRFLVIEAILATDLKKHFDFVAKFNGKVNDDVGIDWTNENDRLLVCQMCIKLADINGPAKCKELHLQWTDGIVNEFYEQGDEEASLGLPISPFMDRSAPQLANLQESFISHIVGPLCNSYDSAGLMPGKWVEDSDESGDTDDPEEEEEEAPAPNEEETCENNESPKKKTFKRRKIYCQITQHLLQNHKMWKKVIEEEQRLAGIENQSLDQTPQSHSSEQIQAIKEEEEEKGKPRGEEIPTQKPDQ

IC50 [11]: 0.22 nM
SMILES: CCCOCCn1c(=O)c(N2CCN(CC)CC2)nc2cnc(-c3ccc(OC)nc3)cc21

Ratio IC50 (Homo sapiens [1]): 1400 | IC50 [11]: 0.31 nM | Ratio IC50 (Homo sapiens [7]): 49
SMILES: CCCOCCn1c(=O)c(N2CCN(C[C@H](C)O)CC2)nc2cnc(-c3ccc(OC)nc3)cc21

Ratio IC50 (Homo sapiens [1]): 2380 | IC50 [11]: 0.23 nM | Ratio IC50 (Homo sapiens [7]): 134
SMILES: CCCOCCn1c(=O)c(N2CCN(C[C@@H](C)O)CC2)nc2cnc(-c3ccc(OC)nc3)cc21
IC50 [12]: 230 nM

Ratio IC50 (Homo sapiens [1]): 1740 | Ratio IC50 (Homo sapiens [7]): 134
SMILES: CCCOCCn1c(=O)c(N2CCN([C@@H](C)[C@@H](C)O)CC2)nc2cnc(-c3ccc(OC)nc3)cc21 (racemic)
IC50 [12]: 54 nM

IC50 [15]: > 2000 nM | IC50 [16]: > 2000 nM | IC50 [17]: > 2000 nM | IC50 [18]: > 2000 nM | Ratio [20]: 11 | IC50 [21]: > 2000 nM | half-life [22]: 17 h | IC50 [23]: > 2000 nM | Tmax [24]: 1 h | IC50 [25]: > 2000 nM | clearance [26]: 5.8 mL/min/kg | Cp(f) (Rattus norvegicus [27]): 2.3 nM | Ratio IC50 (Homo sapiens [1]): 2460 | IC50 [28]: > 2000 nM | Kp at 2 h [29]: 4 | IC50 [30]: > 2000 nM | IC50 [31]: > 2000 nM | IC50 [11]: 0.2 nM | PPB (Plasma [2]): 67.8% | Fu (Plasma [3]): 18% | fraction unbound [4]: 0.18 | remaining at 0.5 h [5]: 85% | bioavailability [34]: 69% | IC50 [35]: > 2000 nM | remaining at 6 h [36]: 2% | clearance [6]: 37 mL/min/kg | IC50 [37]: > 2000 nM | Ratio IC50 (Homo sapiens [7]): 158 | dose excreted [38]: < 2% | remaining at 0.5 h [8]: 89% | IC50 [39]: > 2000 nM | bioavailability [40]: 92% | fraction unbound [9]: 0.171 | IC50 [41]: > 2000 nM | dose excreted [42]: < 2% | IC50 [44]: > 2000 nM
SMILES: CCCOCCn1c(=O)c(N2CCN(CCO)CC2)nc2cnc(-c3ccc(OC)nc3)cc21 [PF-03049423]
Activity (Rattus norvegicus [19]): Active | Activity (Rattus norvegicus [32]): Non-toxic | Activity (Rattus norvegicus [33]): 25 mmHg | Activity (Rattus norvegicus [43]): Active | IC50 [12]: 1790 nM

Ratio IC50 (Homo sapiens [1]): 1370 | Ratio IC50 (Homo sapiens [7]): 64
SMILES: CCCOCCn1c(=O)c(N2CCN(CC(C)(C)O)CC2)nc2cnc(-c3ccc(OC)nc3)cc21

Ratio IC50 (Homo sapiens [1]): 2090 | IC50 [11]: 0.3 nM | Ratio IC50 (Homo sapiens [7]): 68
SMILES: CCCOCCn1c(=O)c(N2CCN([C@H](C)[C@@H](C)O)CC2)nc2cnc(-c3ccc(OC)nc3)cc21 (racemic)

Ratio IC50 (Homo sapiens [1]): 4260 | IC50 [11]: 0.18 nM | Ratio IC50 (Homo sapiens [7]): 62
SMILES: CCCOCCn1c(=O)c(N2CCN(CCCO)CC2)nc2cnc(-c3ccc(OC)nc3)cc21

Continued, molecule first:

SMILES: CCCOCCn1c(=O)c(NCCN)nc2cnc(-c3ccc(OC)nc3)cc21
Ratio IC50 (Homo sapiens [1]): > 8000 | PPB (Plasma [2]): 69.4% | Fu (Plasma [3]): 18% | fraction unbound [4]: 0.18 | remaining at 0.5 h [5]: 97% | clearance [6]: 170 mL/min/kg | Ratio IC50 (Homo sapiens [7]): 4840 | remaining at 0.5 h [8]: 98% | fraction unbound [9]: 0.166 | solubility [10]: > 100 µM

SMILES: CCCOCCn1c(=O)c(N2CCNCC2)nc2cnc(-c3ccc(OC)nc3)cc21
remaining at 0.5 h [5]: 86% | clearance [6]: 42 mL/min/kg | remaining at 0.5 h [8]: 86% | fraction unbound [9]: 0.158 | IC50 [12]: 670 nM

SMILES: CCCOCCn1c(=O)c(N2CCCN(CCCO)CC2)nc2cnc(-c3ccc(OC)nc3)cc21
Ratio IC50 (Homo sapiens [1]): > 1860 | Ratio IC50 (Homo sapiens [7]): 94

SMILES: CCCOCCn1c(=O)c(N2C[C@H]3C[C@@H]2CN3)nc2cnc(-c3ccc(OC)nc3)cc21
Ratio IC50 (Homo sapiens [1]): 456 | Ratio IC50 (Homo sapiens [7]): 93

SMILES: CCCOCCn1c(=O)c(NCCNCCO)nc2cnc(-c3ccc(OC)nc3)cc21
fraction unbound (Homo sapiens [13]): 0.18 | Ratio IC50 (Homo sapiens [1]): > 1780 | fraction unbound [4]: 0.18 | remaining at 0.5 h [5]: 95% | clearance [6]: 582 mL/min/kg | fraction unbound (Homo sapiens [14]): 0.212 | Ratio IC50 (Homo sapiens [7]): 242 | remaining at 0.5 h [8]: 100% | fraction unbound [9]: 0.226 | solubility [10]: > 100 µM | IC50 [12]: 4500 nM

SMILES: CCCOCCn1c(=O)c(N2CCCN(CCO)CC2)nc2cnc(-c3ccc(OC)nc3)cc21
Ratio IC50 (Homo sapiens [1]): > 2780 | Ratio IC50 (Homo sapiens [7]): 70

Source: ChEMBL document CHEMBL1157659, “Design, synthesis, and biological evaluation of 3-[4-(2-hydroxyethyl)piperazin-1-yl]-7-(6-methoxypyridin-3-yl)-1-(2-propoxyethyl)pyrido[3,4-b]pyrazin-2(1H)-one, a potent, orally active, brain penetrant inhibitor of phosphodiesterase 5 (PDE5)” (J Med Chem, 2010)
